Measured values from US6642217B2, “Triterpenes having human antifungal and antiyeast activity” (Naturtek, LLC, priority 2000, dated 2003).

Assays:
[1] = system: Microsporum canis; assay: Agar dilution method, growth on Sabouraud dextrose agar slants; format: cell-based; parameters: key: +++: Maximum Fungal Growth; ++: Moderate Fungal Growth; +: Minimum Fungal Growth; +/−: Very little Fungal Growth; −: No Fungal Growth; settings: 12th day after inoculation
Description: (§1) Agar dilution method. Sabouraud Dextrose Agar (Difco Laboratories, Michigan) was prepared according to the manufacturer's instructions. Five ml was dispensed in a 100×25 mm tube and autoclaved. To each tube containing 5.0 ml of liquid agar at 45° C., 0.5, 0.25, 0.12, or 0.063 ml of a DMSO solution of the compound was added to give the final indicated concentrations in Table 2. The agar was then solidified in slants. Fungal cultures were inoculated. The slants were incubated at 25-28° C. for 10-12 days, and the growth of the fungus was recorded every second day.

[2] = system: Microsporum gypseum; assay: as above; format: cell-based; parameters: key: +++: Maximum Fungal Growth; ++: Moderate Fungal Growth; +: Minimum Fungal Growth; +/−: Very little Fungal Growth; −: No Fungal Growth; settings: 12th day after inoculation
Description: as §1

[3] = system: Pityrosporum ovale; assay: as above; format: cell-based; parameters: key: +++: Maximum Fungal Growth; ++: Moderate Fungal Growth; +: Minimum Fungal Growth; +/−: Very little Fungal Growth; −: No Fungal Growth; settings: 12th day after inoculation
Description: as §1

[4] = system: Trichophyton rubrum; assay: as above; format: cell-based; parameters: key: +++: Maximum Fungal Growth; ++: Moderate Fungal Growth; +: Minimum Fungal Growth; +/−: Very little Fungal Growth; −: No Fungal Growth; settings: 12th day after inoculation
Description: as §1

[5] = system: Microsporum audouinni; assay: as above; format: cell-based, Microsporum audouinii; parameters: key: +++: Maximum Fungal Growth; ++: Moderate Fungal Growth; +: Minimum Fungal Growth; +/−: Very little Fungal Growth; −: No Fungal Growth; settings: 12th day after inoculation
Description: as §1

[6] = system: Trichophyton tonsuran; assay: as above; format: cell-based, Trichophyton tonsurans; parameters: key: +++: Maximum Fungal Growth; ++: Moderate Fungal Growth; +: Minimum Fungal Growth; +/−: Very little Fungal Growth; −: No Fungal Growth; settings: 12th day after inoculation
Description: as §1

[7] = system: Trichophyton mentagrophyte; assay: as above; format: cell-based, Trichophyton mentagrophytes; parameters: key to Fungal growth: +++: Maximum Fungal Growth; ++: Moderate Fungal Growth; +: Minimum Fungal Growth; +/−: Very little Fungal Growth; −: No Fungal Growth; settings: 12th day after inoculation
Description: as §1

[8] = system: Epidermophyton floccosum; assay: as above; format: cell-based; parameters: key to Fungal growth: +++: Maximum Fungal Growth; ++: Moderate Fungal Growth; +: Minimum Fungal Growth; +/−: Very little Fungal Growth; −: No Fungal Growth; settings: 12th day after inoculation
Description: as §1

[9] = system: Microsporum audouinni; assay: Direct addition method, solid compound in Sabouraud dextrose agar; format: cell-based, Microsporum audouinii; parameters: key to Fungal growth: +++: Maximum Fungal Growth; ++: Moderate Fungal Growth; +: Minimum Fungal Growth; +/−: Very little Fungal Growth; −: No Fungal Growth; settings: for Fungal growth: 4 mg/mL of agar, 12th day after inoculation
Description: (§2) Direct addition method. Sabouraud dextrose agar was prepared according to the manufacturer's instructions and 5.0 ml was dispensed in each 100×25 mm tube. The tubes were autoclaved. To each tube containing 5.0 ml of liquid agar at 45° C., 20 mg of solid test compound was added, to give a final concentration of 4 mg/ml. The agar was solidified in slants. The fungal cultures were then innoculated. The slants were incubated at 25-28 ° C. for 10-12 days, and the growth of the fungus was recorded every second day. The results in Table 2 indicate growth at the 12th day of inoculation.

[10] = system: Pityrosporum ovale; assay: Direct addition into the Pityrosporum agar; format: cell-based; parameters: key to Pityrosporum ovale growth: +++: Maximum Growth; ++: Moderate Growth; +: Minimum Growth; +/−: Very Little Growth; −: No Growth; settings: for Growth inhibition of Pityrosporum ovale by the direct addition method: 4 mg/ml; for Pityrosporum ovale growth: 4 mg/ml in the agar, 18 hours after inoculation
Description: as §2, with “The slants were incubated at 25-28 ° C. for 10-12 days, and the growth of the fungus was recorded every second day. The results in Table 2 indicate growth at the 12th day of inoculation.” left out

[11] = system: P. ovale; assay: Summary of anti-fungal assays (direct addition, agar dilution, liquid culture); format: cell-based, Pityrosporum ovale; settings: stated in words (Tables 1a/1b, text to Table 5)
Description: (§3) This example summarizes the results of various other assays of the anti-fungal activity of betulin derivatives. Table 5 summarizes results using different assay methods—direct addition, agar dilution, and direct addition to liquid culture, as disclosed in the previous three Examples. In some cases, only one type of assay was done with a compound. In other cases, the compound was tested by multiple assays.

[12] = system: Microsporum audouinii; assay: as above; format: cell-based; settings: stated in words (Tables 1a/1b, text to Table 5)
Description: as §3

[13] = system: Epidermophyton floccosum; assay: Direct addition method, solid compound in Sabouraud dextrose agar; format: cell-based; parameters: key: +++: Maximum Fungal Growth; ++: Moderate Fungal Growth; +: Minimum Fungal Growth; +/−: Very little Fungal Growth; −: No Fungal Growth; settings: 4 mg/mL of agar; 12th day after inoculation
Description: as §2

[14] = system: Microsporum canis; assay: as above; format: cell-based; parameters: key: +++: Maximum Fungal Growth; ++: Moderate Fungal Growth; +: Minimum Fungal Growth; +/−: Very little Fungal Growth; −: No Fungal Growth; settings: 4 mg/mL of agar; 12th day after inoculation
Description: as §2

[15] = system: Pityrosporum ovale; assay: as above; format: cell-based; parameters: key: +++: Maximum Fungal Growth; ++: Moderate Fungal Growth; +: Minimum Fungal Growth; +/−: Very little Fungal Growth; −: No Fungal Growth; settings: 4 mg/mL of agar; 12th day after inoculation
Description: as §2

[16] = system: Trichophyton rubrum; assay: as above; format: cell-based; parameters: key: +++: Maximum Fungal Growth; ++: Moderate Fungal Growth; +: Minimum Fungal Growth; +/−: Very little Fungal Growth; −: No Fungal Growth; settings: 4 mg/mL of agar; 12th day after inoculation
Description: as §2

[17] = system: Microsporum canis; assay: as above; format: cell-based; settings: against Microsporum canis
Description: as §2

## C=C(C)[C@@H]1CCC2(CO)CC[C@@]3(C)C(CCC4[C@@]5(C)C=C(O)C(=O)C(C)(C)C5CC[C@]43C)C12 (stereo partly drawn)
other
  melting point: 167 to 170 °C (dec.)

## CC1(C)CCC23CC[C@@]4(C)C(CCC5[C@@]6(C)CC[C@H](O)C(C)(C)C6CC[C@]54C)C2C1OC3 (stereo partly drawn) [Allobetulin, oleanan-3β-ol-28,19-β-ether]
[1]; 9 μg/ml
  Fungal growth: +++
[1]; 19 μg/ml
  Fungal growth: ++
[1]; 38 μg/ml
  Fungal growth: ++
[1]; 75 μg/ml
  Fungal growth: −
[2]; 9 μg/ml
  Fungal growth: +++
[2]; 19 μg/ml
  Fungal growth: ++
[2]; 38 μg/ml
  Fungal growth: ++
[2]; 75 μg/ml
  Fungal growth: −
[3]; 9 μg/ml
  Fungal growth: +++
[3]; 19 μg/ml
  Fungal growth: +++
[3]; 38 μg/ml
  Fungal growth: ++
[3]; 75 μg/ml
  Fungal growth: −
[4]; 9 μg/ml
  Fungal growth: ++
[4]; 19 μg/ml
  Fungal growth: ++
[4]; 38 μg/ml
  Fungal growth: +
[4]; 75 μg/ml
  Fungal growth: −
[5]; 9 μg/ml
  Fungal growth: +/−
[5]; 19 μg/ml
  Fungal growth: −
[5]; 38 μg/ml
  Fungal growth: −
[5]; 75 μg/ml
  Fungal growth: −
[6]; 9 μg/ml
  Fungal growth: +++
[6]; 19 μg/ml
  Fungal growth: ++
[6]; 38 μg/ml
  Fungal growth: ++
[6]; 75 μg/ml
  Fungal growth: −
[7]; 9 μg/ml
  Fungal growth: ++
[7]; 19 μg/ml
  Fungal growth: +
[7]; 38 μg/ml
  Fungal growth: +
[7]; 75 μg/ml
  Fungal growth: −
[8]; 9 μg/ml
  Fungal growth: ++
[8]; 19 μg/ml
  Fungal growth: +
[8]; 38 μg/ml
  Fungal growth: +
[8]; 75 μg/ml
  Fungal growth: −
[9]
  Fungal growth: +
[10]
  Growth inhibition of Pityrosporum ovale by the direct addition method: inhibited the growth
  Pityrosporum ovale growth: +/−
[11]
  Active against Pityrosporum ovale: Pityrosporum ovale
[12]
  Active against Microsporum audouinii: Microsporum audouinii
[13]
  Fungal growth: −
[14]
  Fungal growth: ++
[15]
  Fungal growth: −
[16]
  Fungal growth: +

## CC(C)C(N)C(=O)OC1CCC2(C)C(CCC3(C)C2CCC2C4C5OCC4(CCC5(C)C)CCC23C)C1(C)C [Allobetulin-3-L-valine]
[9]
  Fungal growth: −
[9]; against Microsporum audouinii
  best anti-fungal or anti-yeast activity by the direct addition method: against Microsporum audouinii
[10]
  Growth inhibition of Pityrosporum ovale by the direct addition method: inhibited the growth
  Pityrosporum ovale growth: +
[11]
  Active against Pityrosporum ovale: Pityrosporum ovale
[12]
  Active against Microsporum audouinii: Microsporum audouinii
[13]
  Fungal growth: −
[14]
  Fungal growth: +
[15]
  Fungal growth: −
[16]
  Fungal growth: +

## CC(=O)OC1CC[C@@]2(C)C(CC[C@]3(C)C2CCC2C4C5OC(=O)C4(CCC5(C)C)CC[C@@]23C)C1(C)C (stereo partly drawn) [Allobetulinlactone-3-acetate, oleanan-28,19-β-lactone-3-acetate]
other
  melting point: 312.5 to 315.4 °C (dec.)

## C=C(C)C1CCC2(COC(=O)CCC(=O)O)CC[C@@]3(C)C(CCC4[C@@]5(C)CCC(OC(=O)CCC(=O)O)C(C)(C)C5CC[C@]43C)C12 (stereo partly drawn) [Betulin-3,28-disuccinate]
[1]; 125 μg/ml
  Fungal growth: ++
[1]; 250 μg/ml
  Fungal growth: +
[1]; 500 μg/ml
  Fungal growth: +
[1]; 1000 μg/ml
  Fungal growth: −
[2]; 125 μg/ml
  Fungal growth: ++
[2]; 250 μg/ml
  Fungal growth: +
[2]; 500 μg/ml
  Fungal growth: +
[2]; 1000 μg/ml
  Fungal growth: −
[3]; 125 μg/ml
  Fungal growth: +++
[3]; 250 μg/ml
  Fungal growth: +++
[3]; 500 μg/ml
  Fungal growth: +++
[3]; 1000 μg/ml
  Fungal growth: +
[4]; 125 μg/ml
  Fungal growth: ++
[4]; 250 μg/ml
  Fungal growth: +
[4]; 500 μg/ml
  Fungal growth: +
[4]; 1000 μg/ml
  Fungal growth: −
[5]; 125 μg/ml
  Fungal growth: +
[5]; 250 μg/ml
  Fungal growth: −
[5]; 500 μg/ml
  Fungal growth: −
[5]; 1000 μg/ml
  Fungal growth: −
[6]; 125 μg/ml
  Fungal growth: ++
[6]; 250 μg/ml
  Fungal growth: +
[6]; 500 μg/ml
  Fungal growth: +
[6]; 1000 μg/ml
  Fungal growth: −
[7]; 125 μg/ml
  Fungal growth: ++
[7]; 250 μg/ml
  Fungal growth: +
[7]; 500 μg/ml
  Fungal growth: +
[7]; 1000 μg/ml
  Fungal growth: −
[8]; 125 μg/ml
  Fungal growth: ++
[8]; 250 μg/ml
  Fungal growth: +
[8]; 500 μg/ml
  Fungal growth: +
[8]; 1000 μg/ml
  Fungal growth: −
[17]
  best anti-fungal or anti-yeast activity by the direct addition method: against Microsporum canis
[9]
  Fungal growth: +
[10]
  Pityrosporum ovale growth: +
[12]; listed as Betulin-3.28-di-succinate
  Active against Microsporum audouinii: Microsporum audouinii,
[13]
  Fungal growth: −
[14]
  Fungal growth: −
[15]
  Fungal growth: −
[16]
  Fungal growth: +
